According to paper PMC11357446, “Searching for Novel HDAC6/Hsp90 Dual Inhibitors with Anti-Prostate Cancer Activity: In Silico Screening and In Vitro Evaluation” (Pharmaceuticals, 2024):
Read-outs that look alike come from different tables or passages of the source.

Columns and labels:
Format in all cases: cell-based, human
[1] = system: acetylated H3 (Ac-H3) in PC-3 cells; assay: Western blot of acetylated histone H3 in PC-3 cells; conditions: 24 h at GI50 concentration
Experimental: (§1) To assess whether the observed antiproliferative activity of the selected compounds was a consequence of HDAC6-targeting, we examined the effect of the cell treatments on the expression levels of acetylated tubulin (Ac-Tub), a well-known HDAC6 target. LNCaP and PC-3 cells were treated with the tested compounds at their GI50 concentrations, and SDS-PAGE and western blot were performed. In addition, the acetylation levels of histone H3, which are mainly regulated by HDAC1, were also evaluated in order to exclude potential class I-HDAC off-target activities. We used Tubastatin-A and Geldanamycin as reference controls for cellular effects resulting from HDAC6- and Hsp90-inhibition, respectively. The results in Figure 2 show a significant increase in α-Tubulin acetylation in LNCaP cells after treatments with compounds 8, 11 and 18. Indeed, these compounds triggered a 2.9-, 5.1-, and 2.5-fold increase, respectively, compared to the control (DMSO). […].
(§2) Figure 2 Western blot analysis and relative quantification of the expression levels of acetylated-Tubulin (Ac-TUB), acetylated H3 (Ac-H3), and HSP70 in LNCaP (A,B) and PC-3 (C,D) cells treated for 24 h at GI50 concentration. Tubastatin-A was used as HDAC6-specific positive control, Geldanamycin (GELDA) as HSP90-specific positive control, and SAHA as pan-HDAC inhibitor. […]

[2] = system: PC-3 prostate cancer cells; assay: Cell viability assay (MTT) on PC-3 cells; conditions: 72 h treatment, MTT, mean of three independent experiments ± SEM, read-out: PC-3 GI50
Experimental: (§3) The human prostate cancer cell line PC-3 (ATCC Cat# CRL-1435) was grown in Ham’s F12 (Biowest, Nuaillé, France) medium, while the human prostate cancer cell line LNCaP (ATCC Cat# CRL-1740) was grown in RPMI 1640 (Biowest, Nuaillé, France) medium. Both media were supplemented with 10% Fetal Bovine Serum (FBS, Gibco, Fisher Scientific Italia, Segrate, Italy), 2 mM glutamine, 100 U/mL penicillin, and 100 μg/mL streptomycin. PC-3 and LNCaP cells were maintained at 37 °C in a humidified 5% CO2 atmosphere.
(§4) PC-3 and LNCaP cells were seeded at a density of 4000 and 6000 cells/well into a 96-well plate, respectively, together with a calibration curve of known cell numbers. The following day, the cells were treated with the indicated test compounds at different concentrations starting at 75μM with 2-fold serial dilutions. Cell viability was evaluated after 72h by colorimetric MTT (PC-3) or PrestoBlue™ (LNCaP) cell viability reagents. A total of 0.5 mg/mL of thiazolyl blue tetrazolium bromide (MTT) (Sigma-Aldrich, St. Louis, MO, USA) in Ham’s F12 medium was added to the wells, and the plate was incubated at 37 °C for 2 h. Medium containing unconverted MTT was removed, and 100 μL of MTT solvent (4 mM HCl, 0.1% NP40, in isopropyl alcohol) was added to the wells in order to solubilize MTT crystals. After 15 min of incubation at room temperature, the absorbance values at 570 nm were obtained with a Multiskan FC Microplate Photometer (Thermo Fisher Scientific, Waltham, MA, USA). PrestoBlue reagent (#A13261, Thermo Fisher Scientific, Waltham, MA, USA) was added to the medium (1:10 v/v) and incubated for 1 h at 37 °C. Cell viability was calculated by quantifying PrestoBlue reduction by measuring the absorbance at 570 and 620 nm, according to the manufacturer’s protocol. The viability of untreated cells was arbitrarily set at 100%, and the concentration at which cellular growth is inhibited by 50% (GI50) was determined. Three independent experiments were performed.

[3] = system: LNCaP prostate cancer cells; assay: Cell viability assay (PrestoBlue) on LNCaP cells; conditions: 72 h treatment, PrestoBlue, mean of three independent experiments ± SEM, read-out: LNCaP GI50
Experimental: as §3, §4

[4] = system: acetylated H3 (Ac-H3) in LNCaP cells; assay: Western blot of acetylated histone H3 in LNCaP cells; conditions: 24 h at GI50 concentration
Experimental: as §1, §2

SMILES	induction of H3 acetylation [1]	GI50 [2] [µM]	GI50 ([2]; Homo sapiens, PC-3, 72 h) [µM]	GI50 [3] [µM]	GI50 ([3]; Homo sapiens, LNCaP, 72 h) [µM]	induction of H3 acetylation [4]
O=C(c1cc(OCc2ccccc2)ccc1O)N1CCC(c2noc(C(F)(F)F)n2)CC1 [Compound 8]	no remarkable induction of H3 acetylation	51.8 ± 0.6	~50	51.6 ± 3.7	~50	no remarkable induction of H3 acetylation
CC(C)[C@H](C(=O)NCc1ccc(C(=O)NO)cc1)N1Cc2ccccc2C1=O [Compound 11]	–	–	13.9 ± 2.9	–	41.3 ± 8.7	–
O=C(Nc1ncccc1O)c1ccc(-c2noc(C(F)(F)F)n2)cc1 [Compound 18]	–	–	21 ± 5.4	–	> 75	–
